One data set has as its system GI transit. Description: GI transit score (GITS) by transit of radio-opaque markers (SITZMARKS) in subjects given loperamide. It counts as in vivo, healthy subjects. The following applies: for GI Score: x-ray Day 4, group mean, normal 255.56. The procedure: Subjects were randomly assigned to receive one of the following five treatments: • Group 1: […] Study Assessments Subjects were assessed for their pain at the I.V. infusion site using a categorical four-point verbal scale (i.e., no discomfort/pain, mild discomfort/pain, moderate pain, or severe pain). The Investigator also assessed certain characteristics (e.g., erythema) of the I.V. site (i.e., none, mild, moderate, or severe). Abdominal x-rays and x-rays of stool samples were performed to determine the location of the […] markers. Oral […] capsules were administered on Days 1, 2, and 3 at the same time that study medication is administered each day.

Data set [1] in a line: Plasma exposure (AUC (τ)) of I.V. alvimopan given for 4 days with loperamide. It counts as in vivo, healthy subjects. The following applies: group mean. As to the method: Subjects were randomly assigned to receive one of the following five treatments: • Group 1: […] Study Assessments Serial blood samples were collected for the determination of concentrations of alvimopan and its amide hydrolysis metabolite in plasma. The appropriate dose was drawn into the delivery system, normal saline was added to bring the total volume to 6 mL, and the contents will be mixed thoroughly. Placebo for alvimopan I.V. was 6 mL of normal saline. […] The first eight subjects in each treatment group followed a full sampling schedule and the last four subjects followed a sparse sampling schedule. For the first eight subjects (full sampling schedule), blood samples was collected just prior to administration of alvimopan I.V. on Days 1 through 4 (four samples); and at 0.5, 1, 1.5, 2, 5, 10, 20, 30, and 60 minutes and at 2, 4, 6, 8, 10, 12, 16, 24, 48, 72, 96, 120, 144, and 168 hours after the end of the infusion of alvimopan I.V. on Day 4. This is a total of 27 samples per subject (135 mL per subject). For the last four subjects in each treatment group (sparse sampling schedule), blood was collected prior to administration of alvimopan I.V. on Days 1 through 4 (four samples), and immediately following the last infusion on Day 4. Subjects were randomized to have one sample collected during each of the following intervals, relative to the end of the infusion on Day 4: […]

A further data set can be described thus: Solubility in water. The format is physicochemical. Particulars: except at low or high pH conditions.
Data set [2] has as its target μ opioid receptors in the GI tract (Homo sapiens, UniProt P35372). Description: Free alvimopan plasma concentration after a 12 mg oral dose before surgery, compared with Ki. The format is in vivo, patients. The procedure:
A Practical Introduction to Structure, Mechanism, and Data Analysis, 2nd Edition, (New York: Wiley-VCH, 2000), page 88, the disclosure of which is incorporated herein by reference.
Twelve milligrams of alvimopan (two 6 mg capsules) was administered orally to patients about 120 minutes prior to surgery. The free alvimopan plasma concentration was measured for about 24 hours.

The mark [3] stands for this setting: Group 3 (alvimopan 1 mg I.V. b.i.d. + loperamide 2 mg p.o. q.i.d.).
Setting [4] is: Group 4 (alvimopan 0.45 mg I.V. b.i.d. + loperamide 2 mg p.o. q.i.d.).
Where [5] appears, read: Group 5 (alvimopan 0.1 mg I.V. b.i.d. + loperamide 2 mg p.o. q.i.d.).

μ opioid receptors in the GI tract, sequence (P35372 whole entry): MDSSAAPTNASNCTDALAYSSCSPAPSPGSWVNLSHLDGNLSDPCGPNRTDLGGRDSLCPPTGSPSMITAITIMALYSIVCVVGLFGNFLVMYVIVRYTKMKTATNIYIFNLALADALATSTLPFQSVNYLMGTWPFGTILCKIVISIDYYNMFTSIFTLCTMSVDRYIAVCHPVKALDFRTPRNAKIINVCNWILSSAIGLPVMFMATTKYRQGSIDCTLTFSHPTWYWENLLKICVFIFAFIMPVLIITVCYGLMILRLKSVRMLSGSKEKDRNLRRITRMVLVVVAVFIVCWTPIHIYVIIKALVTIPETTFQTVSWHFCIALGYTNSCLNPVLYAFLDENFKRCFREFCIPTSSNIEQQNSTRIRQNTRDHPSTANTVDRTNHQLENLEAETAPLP

In the case of `CN(C)C(=O)C(CCN1CCC(O)(c2ccc(Cl)cc2)CC1)(c1ccccc1)c1ccccc1` [loperamide, reference compound], in the data set with GI transit (Group 2: loperamide 2 mg p.o. q.i.d. + placebo for alvimopan I.V.), the “GI Score” value came out at 208.67.

In the case of `C[C@H]1CN(C[C@H](Cc2ccccc2)C(=O)NCC(=O)O)CC[C@@]1(C)c1cccc(O)c1` [alvimopan, [[(2S)-2-[[(3R,4R)-4-(3-hydroxyphenyl)-3,4-dimethylpiperidin-1-yl]methyl]-3-phenylpropanoyl]amino]acetic acid dihydrate], the “AUC (τ) of Alvimopan” value amounted to 4.36 ng·mL/h in data set [1] (setting [3]), 22.06 ng·mL/h in data set [1] (setting [4]) and 49.79 ng·mL/h in data set [1] (setting [5]). Further, in “Solubility in water”, the solubility in water entry is recorded as “low solubility in water”. In addition, the “free plasma concentrations versus saturation of μ opioid receptors in the GI tract” value in data set [2] (single 12 mg oral dose (two 6 mg capsules), about 120 minutes prior to surgery, FIG. 1) was “sufficient to substantially saturate μ opioid receptors in the GI tract”. Also, the “Maximum free plasma concentrations achieved relative to the Ki” value in data set [2] (single 12 mg oral dose, FIG. 1) is 11 fold. For the same molecule, the receptor occupancy at 12 mg in data set [2] (single 12 mg oral dose, read-out: estimated receptor occupancy) is above 68%. The “GI Score” value with GI transit (setting [3]) is on record as 231; in the data set with GI transit (setting [4]), 274.62; with GI transit (setting [5]), 278.5. The “GI score compared with Group 2 (loperamide + placebo) and normal (Group 1)” value with GI transit (Group 4) and in the data set with GI transit (Group 5) was “statistically different from Group 2” in each case.

The values above are taken from patent US8946262B2, “Methods of preventing and treating gastrointestinal dysfunction” (Adolor Corporation, priority 2003, dated 2015).
